For data set [1] the following is noted: cited from earlier work.
For a further data set, the target named is T1, MGMT (Homo sapiens, UniProt P16455).
T1 sequence (P16455 1-207): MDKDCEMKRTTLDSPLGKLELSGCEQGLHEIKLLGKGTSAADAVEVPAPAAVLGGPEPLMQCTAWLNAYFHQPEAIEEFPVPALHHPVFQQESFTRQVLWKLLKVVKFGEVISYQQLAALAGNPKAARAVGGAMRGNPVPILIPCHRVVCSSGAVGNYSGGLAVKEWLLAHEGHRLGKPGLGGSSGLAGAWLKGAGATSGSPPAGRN
Put plainly: MGMT activity and protein (western blot) in drug-treated T98G and UW228 brain tumor cells. The format is cell-based. Also on record: endogenous in cells; host or cells: UW228, T98G. The procedure:
The DNA repair activity of MGMT was measured by the transfer of [3H]-labeled methyl groups from the O^6-position of guanine in the DNA substrate to the MGMT protein as described previously. The DNA substrate enriched in O6-methylguanine was prepared by reacting [3H]-methylnitrosourea (GE Healthcare, 60 Ci/mmol). Briefly, the cell pellets were washed with cold PBS, disrupted by sonication in the assay buffer (30 mM Tris-HCl pH 7.5, 0.5 mM DTT, 0.5 mM EDTA, 5% glycerol, and 20 μM spermidine) and centrifuged. The extracts (50-150 μg protein) were supplemented with the [3H]-DNA (10,000 cpm) and incubated at 37° C. The reactions were terminated by the addition of TCA, the DNA substrate was hydrolyzed at 80° C., and following filtration on glass fiber discs; the radioactivity present in protein precipitates was quantitated.
After trypsinization, the cell pellets were washed with cold PBS, and subjected to sonication in 50 mM Tris-HCl (pH 8.0) containing 1% glycerol, 1 mM EDTA, 0.5 mM PMSF and 2 mM benzamidine and centrifuged. Equal protein amounts from different treatments were electrophoresed on 12% SDS-polyacrylamide gels. Proteins were electro-transferred to Immobilon-P membranes. The membranes were blocked with 5% non-fat dry milk in Trisbuffered saline (TBS; pH 8.0) containing 0.1% Tween 20 for 3 hours, and subsequently incubated with appropriate primary antibodies. Antigen-antibody complexes were visualized by enhanced chemiluminiscence (Pierce Company). Band intensities were quantified using a Bio-Rad Versa Doc Imaging system.
Cells were trypsinized, washed and MGMT activity was determined in cell extracts (top panel). The same extracts were western blotted for MGMT protein. WB, western blot. […] Cells were exposed to CuDSF and analyzed for MGMT activity and protein as above. […] To delineate the appropriate time for alkylating drug treatments following MGMT inhibition, next, the time course of MGMT depletion by these three interventions was studied.
At times indicated, MGMT activity and protein levels were assessed.
MGMT performs a stoichiometric reaction to accomplish the DNA repair and is not recycled to its active form. Instead, the inactivated protein is degraded and fresh translation has to occur to restore the MGMT levels in cells. The rate and extent of this recovery is an important factor in the extent of damage introduced to the normal cell genomes such as the bone marrow stem cells. […] MGMT protein and activity levels were analyzed during the depletion and repletion (FIG. 3B).

Read-outs that look alike come from different tables or passages of the source.

For the molecule `CCN(CC)C(=S)SSC(=S)N(CC)CC` [DSF, 1,1′,1″,1′″-[disulfanediylbis(carbonothioylnitrilo)]tetraethane], in data set [1], the “partition coefficient Log P” value is on record as 2.8. On MGMT, the “duration of inactivation of MGMT” value was more than 30 h. For the same molecule, on MGMT, the “duration of suppression of MGMT activity in cell cultures” value was 24 to 36 h. Moreover, the inhibition at 50 µM is 75% on MGMT (50 μM in culture medium, at 12 hours, maintained till 24 hours, read-out: maximal inhibition of MGMT activity and protein); 75% at MGMT (UW228 cells, 50 μM, 12 hours, read-out: loss/inhibition of MGMT activity at 12 hours post-drug treatment); approximately 70% on MGMT (read-out: inhibition of MGMT activity). Also, at MGMT (UW228 cells, 10 mM DTT), the “reversibility of DSF modification of MGMT by DTT” value is on record as “largely irreversible”. In addition, the “recovery of MGMT activity, % of control levels” value at MGMT (UW228 cells, 48 hours post-drug in drug-free media after 50 μM for 12 hours) was ~95 % of control levels.
